Reference: PubChem BioAssay AID248 (DTP/NCI, 2004)
“And” between values parts separate entries of the source, which are not always exact repeats. Identical values can stand only once. Toxic doses and inconclusive results are not listed. No stated cut-off is given here; in the data, active means T/C of 150% or more; inactive means T/C below 125%. Square brackets hold non-standard residues; d marks the D form. Peptide text beside a SMILES is read from it. * marks the point of attachment. ξ: configuration not given here. Cbz = O=C(OCc1ccccc1)*; ξL = CC(C)CC(N)C(=O)O

Tested on: L1210 leukemia ip in BDF1 mice, survival T/C
Test: NCI In Vivo Anticancer Drug Screen. Data for tumor model L1210 Leukemia (intraperitoneal) in B6D2F1 (BDF1) mice
Settings: endpoint: mean survival time, higher = longer survival
Summary of the method: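 Ratio derived from survival: compound-dosed mice over vehicle-dosed mice, all bearing a transplantable tumor.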

[1] = dose: 100.0 mg/kg/injection, schedule: Q01DX001 (ip), vehicle: saline with Tween-80
[2] = dose: 200.0 mg/kg/injection, schedule: Q01DX001 (ip), vehicle: saline with Tween-80
[3] = dose: 400.0 mg/kg/injection, schedule: Q01DX001 (ip), vehicle: saline with Tween-80
[4] = dose: 100.0 mg/kg/injection, schedule: Q01DX009 (ip), vehicle: saline with Tween-80
[5] = dose: 200.0 mg/kg/injection, schedule: Q01DX009 (ip), vehicle: saline with Tween-80
[6] = dose: 100.0 mg/kg/injection, schedule: Q01DX009 (ip), vehicle: Klucel (hydroxypropylcellulose) (HPC)
[7] = dose: 200.0 mg/kg/injection, schedule: Q01DX009 (ip), vehicle: Klucel (hydroxypropylcellulose) (HPC)
[8] = dose: 400.0 mg/kg/injection, schedule: Q01DX009 (ip), vehicle: Klucel (hydroxypropylcellulose) (HPC)
[9] = dose: 100.0 mg/kg/injection, schedule: Q01DX001 (ip), vehicle: saline
[10] = dose: 200.0 mg/kg/injection, schedule: Q01DX001 (ip), vehicle: saline
[11] = dose: 400.0 mg/kg/injection, schedule: Q01DX001 (ip), vehicle: saline
[12] = dose: 100.0 mg/kg/injection, schedule: Q01DX001 (ip), vehicle: Klucel (hydroxypropylcellulose) (HPC)
[13] = dose: 25.0 mg/kg/injection, schedule: Q04DX002 (ip), vehicle: saline
[14] = dose: 100.0 mg/kg/injection, schedule: Q04DX003 (ip), vehicle: saline with Tween-80
[15] = dose: 200.0 mg/kg/injection, schedule: Q04DX003 (ip), vehicle: saline with Tween-80
[16] = dose: 400.0 mg/kg/injection, schedule: Q01DX009 (ip), vehicle: saline with Tween-80
[17] = dose: 400.0 mg/kg/injection, schedule: Q04DX003 (ip), vehicle: saline with Tween-80
[18] = dose: 50.0 mg/kg/injection, schedule: Q01DX009 (ip), vehicle: Klucel (hydroxypropylcellulose) (HPC)
[19] = dose: 100.0 mg/kg/injection, schedule: Q04DX003 (ip), vehicle: Klucel (hydroxypropylcellulose) (HPC)

Measured: T/C

Cc1cc2c(C)c3cc(C)c(C)c(C)c3cc2c(C)c1C
inactive: dose: 25.0 mg/kg/injection, schedule: Q01DX005 (ip), vehicle: water 114 % of control | dose: 50.0 mg/kg/injection, schedule: Q01DX005 (ip), vehicle: water 94 % of control | dose: 100.0 mg/kg/injection, schedule: Q01DX005 (ip), vehicle: water 94 % of control and 97 % of control | dose: 200.0 mg/kg/injection, schedule: Q01DX005 (ip), vehicle: water 96 % of control | dose: 400.0 mg/kg/injection, schedule: Q01DX005 (ip), vehicle: water 100 % of control

CSc1nc(C(=O)O)c(C)c(=O)[nH]1
inactive: dose: 100.0 mg/kg/injection, schedule: Q01DX Z (ip), vehicle: saline 109 % of control | dose: 200.0 mg/kg/injection, schedule: Q01DX Z (ip), vehicle: saline 100 % of control

O=C(O)CCCC1OCCO1
inactive: [1] 98 % of control | [2] 95 % of control | [3] 101 % of control

CCNC(=O)N(Cc1ccccc1)Cc1ccccc1
inactive: [4] 98 % of control | [5] 93 % of control

NC(=O)c1ccccc1NC(=O)Nc1c(Cl)cccc1Cl
inactive: [6] 94 % of control | [7] 106 % of control | [8] 120 % of control

COC(=O)CNC(=O)C(CC(C)C)NC(=O)OCc1ccccc1 (stereo not drawn) (Cbz-[ξL]-Gly-OMe)
inactive: dose: 50.0 mg/kg/injection, schedule: Q01DX009 (ip), vehicle: saline 98 % of control | dose: 50.0 mg/kg/injection, schedule: Q04DX003 (ip), vehicle: saline 94 % of control | [9] 97 % of control | dose: 100.0 mg/kg/injection, schedule: Q01DX009 (ip), vehicle: saline 100 % of control | dose: 100.0 mg/kg/injection, schedule: Q04DX003 (ip), vehicle: saline 91 % of control | [10] 94 % of control | dose: 200.0 mg/kg/injection, schedule: Q01DX009 (ip), vehicle: saline 98 % of control | dose: 200.0 mg/kg/injection, schedule: Q04DX003 (ip), vehicle: saline 96 % of control

CN(C)c1ccc2cc3ccc(N(C)C)cc3nc2c1
inactive: dose: 6.25 mg/kg/injection, schedule: Q01DX009 (ip), vehicle: saline with Tween-80 93 % of control | dose: 12.5 mg/kg/injection, schedule: Q01DX009 (ip), vehicle: saline with Tween-80 98 % of control | dose: 25.0 mg/kg/injection, schedule: Q01DX009 (ip), vehicle: saline with Tween-80 93 % of control | dose: 25.0 mg/kg/injection, schedule: Q04DX002 (ip), vehicle: saline with Tween-80 98 % of control | dose: 50.0 mg/kg/injection, schedule: Q04DX002 (ip), vehicle: saline with Tween-80 98 % of control

CC1CCCC(C)C1O (stereo not drawn)
inactive: [9] 103 % of control | [10] 101 % of control | [11] 103 % of control

O=C(/C=C/c1ccccc1)NC(=S)Nc1nccs1
inactive: dose: 100.0 mg/kg/injection, schedule: Q01DX009 (ip), vehicle: carboxymethylcellulose (CMC) 100 % of control and 104 % of control | dose: 100.0 mg/kg/injection, schedule: Q04DX002 (ip), vehicle: carboxymethylcellulose (CMC) 97 % of control and 103 % of control | dose: 100.0 mg/kg/injection, schedule: Q04DX003 (ip), vehicle: carboxymethylcellulose (CMC) 100 % of control | dose: 200.0 mg/kg/injection, schedule: Q01DX009 (ip), vehicle: carboxymethylcellulose (CMC) 100 % of control and 111 % of control | dose: 200.0 mg/kg/injection, schedule: Q04DX002 (ip), vehicle: carboxymethylcellulose (CMC) 99 % of control and 103 % of control | dose: 200.0 mg/kg/injection, schedule: Q04DX003 (ip), vehicle: carboxymethylcellulose (CMC) 96 % of control | dose: 400.0 mg/kg/injection, schedule: Q01DX009 (ip), vehicle: carboxymethylcellulose (CMC) 96 % of control and 102 % of control | dose: 400.0 mg/kg/injection, schedule: Q04DX002 (ip), vehicle: carboxymethylcellulose (CMC) 103 % of control and 87 % of control | dose: 400.0 mg/kg/injection, schedule: Q04DX003 (ip), vehicle: carboxymethylcellulose (CMC) 93 % of control

Nc1ccc(Cn2ccc(=O)[nH]c2=O)cc1
inactive: [1] 102 % of control | [2] 94 % of control | [3] 87 % of control

CN(C(=O)NCCCl)C1CCC(C(=O)O)CC1 (stereo not drawn)
inactive: [12] 92 % of control | dose: 200.0 mg/kg/injection, schedule: Q01DX001 (ip), vehicle: Klucel (hydroxypropylcellulose) (HPC) 88 % of control

Cc1cc(Cl)c(OCC(=O)O)c(Cl)c1
inactive: [9] 92 % of control | [10] 92 % of control | [11] 94 % of control

NC(Cc1ccc(O)cc1)C(=O)CCl (stereo not drawn)
inactive: [13] 110 % of control | dose: 50.0 mg/kg/injection, schedule: Q04DX002 (ip), vehicle: saline 105 % of control

O=C(Nc1[nH]nc2nccnc12)C(F)(F)F
inactive: [4] 97 % of control | [14] 105 % of control | [5] 92 % of control | [15] 97 % of control | [16] 103 % of control | [17] 100 % of control

CC(=O)CC(=O)Oc1ccccc1OC(C)=O
inactive: [18] 103 % of control | [6] 101 % of control | [19] 100 % of control | [7] 114 % of control | dose: 200.0 mg/kg/injection, schedule: Q04DX003 (ip), vehicle: Klucel (hydroxypropylcellulose) (HPC) 102 % of control

CC(C)=C1C2C=CC1C1C(=O)OC(=O)C21 (stereo not drawn)
inactive: dose: 12.5 mg/kg/injection, schedule: Q04DX003 (ip), vehicle: Klucel (hydroxypropylcellulose) (HPC) 107 % of control | dose: 25.0 mg/kg/injection, schedule: Q01DX009 (ip), vehicle: Klucel (hydroxypropylcellulose) (HPC) 98 % of control | dose: 25.0 mg/kg/injection, schedule: Q04DX003 (ip), vehicle: Klucel (hydroxypropylcellulose) (HPC) 96 % of control | [18] 95 % of control | dose: 50.0 mg/kg/injection, schedule: Q04DX003 (ip), vehicle: Klucel (hydroxypropylcellulose) (HPC) 103 % of control | [12] 94 % of control | [19] 100 % of control

CCCNC(c1ccccc1)=[N+]1C(C)CCCC1C (stereo not drawn)
inactive: dose: 12.5 mg/kg/injection, schedule: Q04DX002 (ip), vehicle: saline 101 % of control | [13] 109 % of control

O=C(Nc1cc(C(F)(F)F)ccc1Cl)c1cccc(C(=O)Nc2cc(C(F)(F)F)ccc2Cl)c1
inactive: dose: 12.5 mg/kg/injection, schedule: Q04DX003 (ip), vehicle: saline with Tween-80 93 % of control | dose: 25.0 mg/kg/injection, schedule: Q04DX003 (ip), vehicle: saline with Tween-80 96 % of control | dose: 50.0 mg/kg/injection, schedule: Q04DX003 (ip), vehicle: saline with Tween-80 95 % of control | [15] 87 % of control

COc1ccc(C(=O)Nc2ccccc2)cc1[N+](=O)[O-]
inactive: [6] 96 % of control | [4] 101 % of control | [14] 101 % of control | [7] 98 % of control | [5] 94 % of control | [15] 97 % of control | [8] 98 % of control | [16] 86 % of control | [17] 101 % of control
